The values below are quoted from earlier work in article PMC6683083, “Lupin Peptide T9 (GQEQSHQDEGVIVR) Modulates the Mutant PCSK9^D374Y Pathway: in vitro Characterization of its Dual Hypocholesterolemic Behavior” (Nutrients, 2019).

Read-outs that look alike come from different tables or passages of the source.

Data set [1] relates to PCSK9. Conditions: cited from earlier work. From the text:
It is important to observe that some natural PCSK9 mutations affect its affinity for the LDLR. In particular, the gain of function (GOF) mutant D374Y binds more avidly to the LDLR than the wild-type (WT) PCSK9. The consequence is an approximately tenfold increased capacity of reducing the LDLR protein level. Accordingly, subjects with this PCSK9^D374Y mutation have very high LDL-C levels and are at high risk of atherosclerosis. In light of these observations, PCSK9 is currently considered a new target for the treatment of hypercholesterolemia, and the development of novel PCSK9 inhibitor ... || In this panorama, lupin protein hydrolysates, obtained by treating the proteins with pepsin and trypsin, show synergistic hypocholesterolemic effects through the modulation of both HMGCoAR and PCSK9 targets. […] Furthermore, these lupin hydrolysates impair the protein–protein interaction (PPI) betwe ... || Taking into account all this information, it is possible to affirm that there is an interesting similarity between the hypocholesterolemic behaviors of T9 and P5.

Data set [2] addresses T1, HMGCoAR (Homo sapiens, UniProt P04035).
T1 construct: purchased Sigma (Sigma-Aldrich, St. Louis, MO, USA)
T1 sequence (P04035 426-888 limits assumed): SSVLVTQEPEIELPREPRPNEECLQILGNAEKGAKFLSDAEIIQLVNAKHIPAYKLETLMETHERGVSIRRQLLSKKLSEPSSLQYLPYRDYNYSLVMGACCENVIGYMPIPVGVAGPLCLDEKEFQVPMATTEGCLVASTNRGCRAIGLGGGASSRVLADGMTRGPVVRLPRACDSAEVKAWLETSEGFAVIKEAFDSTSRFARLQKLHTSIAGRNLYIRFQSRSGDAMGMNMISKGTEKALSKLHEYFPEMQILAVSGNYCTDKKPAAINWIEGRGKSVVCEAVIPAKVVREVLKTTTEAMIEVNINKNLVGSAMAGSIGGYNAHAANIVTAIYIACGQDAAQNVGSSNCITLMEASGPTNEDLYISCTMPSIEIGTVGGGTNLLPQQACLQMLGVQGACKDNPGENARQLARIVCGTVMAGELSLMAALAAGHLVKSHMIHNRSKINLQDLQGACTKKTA
Also noted: method as in 4 sources, ref [16],[18] = [16]; doi:10.1016/j.jff.2017.02.009; 16. Zanoni C. Aiello G. Arnoldi A. Lammi C. Investigations on the hypocholesterolaemic activity of LILPKHSDAD and LTFPGSAED, two peptides from lupin beta-conglutin: Focus on LDLR and PCSK9 pathways J || [18]; doi:10.1111/jfbc.12524; 18. Lammi C. Zanoni C. Arnoldi A. Aiello G. YDFYPSSTKDQQS (P3), a peptide from lupin protein, absorbed by Caco-2 cells, modulates cholesterol metabolism in HepG2 cells via SREBP-1 activation J. Food B ||| ref [19],[20],[21] = [19]; doi:10.1016/j.jff.2015.02.021; 19. Lammi C. Zanoni C. Arnoldi A. IAVPGEVA, IAVPTGVA, and LPYP, three peptides from soy glycinin, modulate cholesterol metabolism in HepG2 cells through the activation of the LDLR-SREBP2 pathway J. Fu || [20]; PMID 26310992; doi:10.1021/acs.jafc.5b03497; 20. Lammi C. Zanoni C. Vistoli G. Arnoldi A. Two Peptides from Soy β-Conglycinin Induce a Hypocholesterolemic Effect in HepG2 Cells by a Statin-Like Mechanism: Comparative in Vitro and in Silico Model || [21]; PMID 26580610; doi:10.3390/ijms161126029; 21. Lammi C. Zanoni C. Arnoldi A. Three Peptides from Soy Glycinin Modulate Glucose Metabolism in Human Hepatic HepG2 Cells Int. J. Mol. Sci. 2015 16 27362 27370 10.3390/ijms161126029 26580610 PMC4661 ||| ref [6] = [6]; PMID 25690031; doi:10.3390/ijms16024150; 6. Soares R.A. Mendonça S. De Castro L. Menezes A.C. Arêas J.A. Ívini Major Peptides from Amaranth (Amaranthus cruentus) Protein Inhibit HMG-CoA Reductase Activity Int. J. Mol. Sci. 2015 16 4150 4160 ||| ref [4],[16] = [4]; PMID 24972343; doi:10.1021/jf500795b; 4. Lammi C. Zanoni C. Scigliuolo G.M. D’Amato A. Arnoldi A. Lupin Peptides Lower Low-Density Lipoprotein (LDL) Cholesterol through an Up-regulation of the LDL Receptor/Sterol Regulatory Element Bindin || [16]; doi:10.1016/j.jff.2017.02.009; 16. Zanoni C. Aiello G. Arnoldi A. Lammi C. Investigations on the hypocholesterolaemic activity of LILPKHSDAD and LTFPGSAED, two peptides from lupin beta-conglutin: Focus on LDLR and PCSK9 pathways J. The conditions noted are these: cited from earlier work.

The subject of data set [3] is LDL uptake by HepG2 cells. The conditions noted are these: cited from earlier work. An excerpt: (§1) In this panorama, lupin protein hydrolysates, obtained by treating the proteins with pepsin and trypsin, show synergistic hypocholesterolemic effects through the modulation of both HMGCoAR and PCSK9 targets. […] In parallel, we have also predicted by in silico experiments that T9 had the potential capability of inhibiting the HMGCoAR activity.

The test system of data set [4] is PCSK9-LDLR protein–protein interaction. Conditions: ref [15]; cited from earlier work.
Description: as §1

Data set [5] deals with LDLR in HepG2 cells. The conditions noted are these: ref [16]; cited from earlier work. An excerpt:
In this panorama, lupin protein hydrolysates, obtained by treating the proteins with pepsin and trypsin, show synergistic hypocholesterolemic effects through the modulation of both HMGCoAR and PCSK9 targets. […] Furthermore, these lupin hydrolysates impair the protein–protein interaction (PPI) betwe ... || Taking into account all this information, it is possible to affirm that there is an interesting similarity between the hypocholesterolemic behaviors of T9 and P5.

The subject of data set [6] is HMGCoAR protein levels. Conditions: reference not given; presumably ref [16]; cited from earlier work. From the text: (§2) Taking into account all this information, it is possible to affirm that there is an interesting similarity between the hypocholesterolemic behaviors of T9 and P5.
Data set [7] concerns HNF-1α. The conditions noted are these: ref [16]; cited from earlier work.
Description: as §2

The test system of data set [8] is SREBP-2 transcription factor. Conditions: ref [16]; cited from earlier work.
Description: as §2

The mark [9] stands for this setting: soybean glycinin peptides, ref [19],[20],[21], read-out: IC50, HMGCoAR activity.
The mark [10] stands for this setting: lupin β-conglutin peptides (pepsin), in vitro, ref [16],[18], read-out: IC50, HMGCoAR activity.

In the case of `COc1ccc2cc3[n+](cc2c1OC)CCc1cc2c(cc1-3)OCO2` [berberine], the “PCSK9 pathway (in words)” value in data set [1] (ref [14]) was “modulate the PCSK9 pathway”.

For the molecule “IAVPGEVA [soybean peptide from glycinin hydrolysis]”, in data set [2] (setting [9]), the IC50 was 222 µM.

Consider “IAVPTGVA [soybean peptide from glycinin hydrolysis]”, for which the IC50 in data set [2] (setting [9]) is 247 µM.

For the molecule VGVL, the IC50 in data set [2] (amaranth peptide, ref [6], read-out: concentration inhibiting HMGCoAR by 50%) was 51.9 µM. Further, the “HMGCoAR inhibition (in words)” value in data set [2] (amaranth protein hydrolysis peptides, ref [6]) is recorded as “direct inhibition of the reductase activity”.

For the molecule “LPYP [soybean peptide from glycinin hydrolysis]”, the IC50 in data set [2] (setting [9]) is 300 µM.

Consider “LTFPGSAED [P7, absorbable peptide deriving from hydrolysis of lupin β-conglutin with pepsin]”, for which, in data set [2] (setting [10]), the IC50 was 68.4 µM.

As to “YDFYPSSTKDQQS [P3, absorbable peptide deriving from hydrolysis of lupin β-conglutin with pepsin]”, the IC50 in data set [2] (setting [10]) is 70 µM.

Turning to “YVVNPDNNEN [soybean peptide from β-conglycinin]”, the IC50 in data set [2] (soybean β-conglycinin peptides, ref [19],[20],[21], read-out: IC50, HMGCoAR activity) is 200 µM.

As to “LILPKHSDAD [P5, absorbable peptide deriving from hydrolysis of lupin β-conglutin with pepsin]”, the IC50 in data set [2] (setting [10]) is 147 µM. For the same molecule, the “ability of HepG2 cells to clear / absorb extracellular LDL (in words)” value in data set [3] (HepG2 cells, ref [15]) is given as “increased ability of HepG2 cells to clear extracellular LDL”. Further, the “capacity of HepG2 cells to clear LDL (in words)” value in data set [3] (ref [16]) was “enhanced capacity of HepG2 cells to clear LDL from the extracellular space”. Further, the “effect on PPI between PCSK9 and LDLR (in words)” value in data set [4] is “able to affect the PPI between PCSK9 and the LDLR”. For the same molecule, the “LDLR protein levels (in words)” value in data set [5] is reported as “increase of the LDLR protein levels”. For the same molecule, the “HMGCoAR protein levels (in words)” value in data set [6] is given as “does not diminish the HMGCoAR protein levels”. Besides, the “HNF-1α level (in words)” value in data set [7] is “decrease of HNF-1α”. Further, the “SREBP-2 transcription factor activation (in words)” value in data set [8] is “augmentation of the SREBP-2 transcription factor activation”. Also, in data set [1] (ref [16]), the “PCSK9-WT protein level (in words)” value is on record as “decrease of PCSK9-WT protein level” and the “selectivity, PCSK9-WT pathway modulation (in words)” value was “selective toward the PCSK9-WT pathway modulation”.
